Where a SMILES comes first, the peptide text is derived from it. [ ]: non-standard residue; d: D form. The star is where a group is joined. ξ: configuration not given here. NMeIle(3ξ) = CCC(C)[C@H](NC)C(=O)O; NMeQ = CN[C@@H](CCC(N)=O)C(=O)O; Ile(3ξ) = CCC(C)[C@H](N)C(=O)O; Hexanoyl = CCCCCC(=O)*; NHOH = ON*
What was measured:
MMP-9 = MMP-9 inhibition assay (fluorimetric, DQ gelatin substrate); format: biochemical; conditions: recombinant MMP-9 (Merck-Millipore for examples 1 to 9 and comparative examples; Enzo for examples 10 to 16), DQ gelatin 50 μg/mL, 4 hours at room temperature, pH 7.6
Chain of MMP-9 (P14780 107-707 limits assumed): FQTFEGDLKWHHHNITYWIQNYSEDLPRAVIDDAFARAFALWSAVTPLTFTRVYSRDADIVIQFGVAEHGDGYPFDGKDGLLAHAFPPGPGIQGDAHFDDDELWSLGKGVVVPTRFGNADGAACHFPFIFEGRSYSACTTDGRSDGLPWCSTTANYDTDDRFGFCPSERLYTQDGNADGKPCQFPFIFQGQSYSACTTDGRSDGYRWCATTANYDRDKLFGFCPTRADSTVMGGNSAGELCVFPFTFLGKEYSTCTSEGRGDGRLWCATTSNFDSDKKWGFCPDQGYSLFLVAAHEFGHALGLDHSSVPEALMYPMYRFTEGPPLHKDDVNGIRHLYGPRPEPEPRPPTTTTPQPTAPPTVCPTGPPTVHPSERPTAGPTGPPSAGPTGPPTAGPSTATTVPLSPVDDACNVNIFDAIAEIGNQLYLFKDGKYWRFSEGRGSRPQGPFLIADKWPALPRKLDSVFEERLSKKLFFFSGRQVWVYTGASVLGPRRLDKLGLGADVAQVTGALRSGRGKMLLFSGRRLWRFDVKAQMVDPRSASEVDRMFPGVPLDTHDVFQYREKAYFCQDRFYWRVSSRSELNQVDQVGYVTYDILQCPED
Description: (§1) All the experiments were done in 1× reaction buffer, which was obtained from a 10× reaction buffer solution. The content of the 10× reaction buffer was: 50 mL of 0.5 M Tris-HCl, 1.5 M NaCl, 50 mM CaCl2 and 2 mM sodium azide at pH 7.6. To obtain the 1× reaction buffer 4 mL of the 10× reaction buffer were diluted in 36 mL of H2O.
Recombinant MMP-9 expressed was obtained from Merck-Millipore (catalog number PF140-5UG, used in examples 1 to 9 and comparative examples) and Enzo (catalog number-SE360-0010, used in examples 10 to 16). DQ gelatin from pig skin fluorescein conjugated (MMP-9 substrate) was obtained from Life Technologies (catalog number E12055).
Preparation of the MMP-9 for the activity assay: MMP-9 was provided as a stock solution (0.1 mg/mL). The enzyme was diluted in 1× reaction buffer to a final concentration of 5 μg/mL.
(§2) Preparation of the DQ gelatin (substrate) solution for the activity assay: the solid form of the substrate was dissolved in water in order to obtain a stock solution of 1 mg/mL.
(§3) Procedure: The enzymatic assays were performed in 96-well microtiter plate, which allowed simultaneous monitoring of multiple reactions. For each reaction, 84.6 μL of 1× reaction buffer (pH 7.6), 3.4 μL of MMP-9 (final concentration 85 ng/mL) and 2 μL of the corresponding new compound were added to each well. A stock solution of new compound was prepared in DMSO (100 mM), and dilutions were prepared from this stock solution with DMSO. Finally, to the mixture contained in each well 10 μL of the substrate were added (final concentration 50 μg/mL). The reaction was incubated for 4 hours at room temperature in an orbital shaker (100 rpm).
(§4) The inhibitory activity of the new compound was measured fluorimetrically. The excitation and emission wavelengths were 483 and 525 nm, respectively.
(§5) Inhibitory activity at several concentration points (ranging from 100 pM to 200 μM MMP) were measured for each compound. The inhibitory activity on MMP-2 and MMP-9 was calculated according to eq 1. For each new compound, the fluorescence in the presence (a) and in the absence (b) of the corresponding MMP was measured. The maximum fluorescence (0% inhibitory activity) was obtained from a sample of the corresponding MMP in the absence of inhibitory compounds. To estimate the inhibitory potency of the novel compounds, activities were plotted against the log concentration of the compound, adjusting to a sigmoid curve using GraphPad Prism software, and the IC50 value, defined as the concentration of compound required to inhibit 50% of the corresponding MMP activity, was determined from resulting curve.
(§6) a corresponds to fluorescence intensity in the presence of substrate+test compound+MMP
(§7) b corresponds to the fluorescence intensity in the presence of substrate+tested compound
(§8) c corresponds to the fluorescence intensity in the presence of substrate+MMP
(§9) d corresponds to the fluorescence intensity of the presence of substrate

MMP-2 = MMP-2 (Homo sapiens (Human), UniProt P08253); test: MMP-2 inhibition assay (fluorimetric, DQ gelatin substrate); format: biochemical; conditions: recombinant MMP-2 (CHO cells) 85 ng/mL, DQ gelatin 50 μg/mL, 2 hours at room temperature, pH 7.6
Chain of MMP-2 (P08253 110-660): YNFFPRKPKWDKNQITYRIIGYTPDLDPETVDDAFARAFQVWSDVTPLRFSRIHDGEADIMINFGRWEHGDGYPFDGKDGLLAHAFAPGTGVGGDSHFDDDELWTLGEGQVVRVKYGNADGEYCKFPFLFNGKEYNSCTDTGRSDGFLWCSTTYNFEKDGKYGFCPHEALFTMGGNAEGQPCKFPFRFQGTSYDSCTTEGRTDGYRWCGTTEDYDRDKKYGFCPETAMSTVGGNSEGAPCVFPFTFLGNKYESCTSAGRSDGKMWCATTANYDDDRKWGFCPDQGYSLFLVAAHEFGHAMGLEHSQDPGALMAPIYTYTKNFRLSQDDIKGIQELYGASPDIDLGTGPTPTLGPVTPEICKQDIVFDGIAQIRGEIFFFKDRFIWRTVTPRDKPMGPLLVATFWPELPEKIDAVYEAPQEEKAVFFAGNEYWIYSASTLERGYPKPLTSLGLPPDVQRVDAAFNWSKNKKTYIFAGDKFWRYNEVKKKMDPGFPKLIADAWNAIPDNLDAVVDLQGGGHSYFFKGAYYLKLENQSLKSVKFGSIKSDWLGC
Description: as §1
Recombinant MMP-2 expressed in Chinese hamster ovary (CHO) cells was obtained from Merck-Millipore (catalog number PF023-5UG). DQ gelatin from pig skin fluorescein conjugated (MMP-2 substrate) was obtained from Life Technologies (catalog number E12055).
Preparation of the MMP-2 for the activity assay: MMP-2 was provided as a stock solution (0.1 mg/mL). The enzyme was diluted in 1× reaction buffer to a final concentration of 5 μg/mL.
as §2
as §3, with “86.3” for “84.6”, “1.7” for “3.4”, “MMP-2” for “MMP-9”, “2” for “4”
as §4, §5, §6, §7, §8, §9

Row | IC50 (MMP-9) [µM] | IC50 (MMP-2) [µM] | Compound
1 | 240 | 710 | CCC(C)[C@H](NC(=O)[C@H](Cc1c[nH]c2ccccc12)NC(=O)[C@H](CCC(N)=O)NC(C)=O)C(=O)NO (stereo partly drawn) [Example C18, (2 S)-2-acetamido-N-[(1S)-2-[[(1S)-1-(hydroxycarbamoyl)-2-methyl-butyl]amino]-1-(1H-indol-3-ylmethyl)-2-oxo-ethyl]pentanediamide, reference compound] (Ac-Gln-Trp-[Ile(3ξ)]-{NHOH})
2 | > 2000 | > 2000 | CCC(C)[C@H](NC(=O)[C@@H]1CCCN1C(=O)[C@H](CCC(N)=O)NC(C)=O)C(=O)NO (stereo partly drawn) [Example C19, (2S)-1-[(2S)-2-acetamido-5-amino-5-oxo-pentanoyl]-N-[(1S)-1-(hydroxycarbamoyl)-2-methyl-butyl]pyrrolidine-2-carboxamide, reference compound] (Ac-Gln-Pro-[Ile(3ξ)]-{NHOH})
3 | 16 | 110 | CCC(C)[C@@H](C(=O)N[C@@H](Cc1c[nH]c2ccccc12)C(=O)NO)N(C)C(=O)[C@@H]1CCCN1C(C)=O (stereo partly drawn) [Example C21, (2S)-1-acetyl-N-[(1S)-1-[[(1S)-2-(hydroxyamino)-1-(1H-indol-3-ylmethyl)-2-oxo-ethyl]carbamoyl]-2-methyl-butyl]-N-methyl-pyrrolidine-2-carboxamide, reference compound] (Ac-Pro-[NMeIle(3ξ)]-Trp-{NHOH})
4 | > 1000 | > 2000 | CCCCCC(=O)N1CCC[C@H]1C(=O)N(C)[C@@H](CCC(N)=O)C(=O)N[C@@H](Cc1c[nH]c2ccccc12)C(=O)NO [Example C23, (2S)-2-[[(SS)-1-hexanoylpyrrolidine-2-carbonyl)-methyl-amino]-N-[(1S)-2-(hydroxyamino)-1-(1H-indol-3-ylmethyl)-2-oxo-ethyl]pentanediamide, reference compound] (Hexanoyl-Pro-[NMeQ]-Trp-{NHOH})
